# Test results published in patent US8067422B2, “Crystal form of phenylamino pyrimidine derivatives” (Natco Pharma Limited, priority 2008, dated 2011).
# Entries after “also recorded” stand apart in the source; their conditions may differ. Where a name gives a salt, the structure may show the parent alone.
# Tests used:
# [1] = Thermodynamic stability of crystal forms at room temperature; type: physicochemical
# Description: This is indicative of the greater stability of the Form-III crystal form.
# K562 cells [2] = assay: Spleenic enlargement and spleen Crk immunocytochemistry in K562 implanted nude mice; type: in vivo; settings: ip injections
# Experimental: Control mice were sacrificed on day 42 when secondary leukemia symptoms were observed, such as abdominal swelling and lack of circulation in the peripherals causing loss of digits with red spots under the skin surface. Spleen and any secondary tumors were harvested, fixed in formaldehyde and paraffin embedded as per standard protocols. Paraffin section were obtained and processed for immunocytochemistry. The rehydrated sections were treated with 0.3% H2O2 to inactivate any native peroxidases prior to immuno-probing. The sections were blocked with filter sterilized (0.22 μm) 1% BSA-PBS at room temperature for 1 h. Following blocking, the sections were immuno-probed with a human specific anti-Crk monoclonal primary antibody raised in rabbit against a synthetic peptide corresponding to residues in the SH2 domain, near the N-term of human CrkL protein (Abcam, Cambridge, Mass., USA) in 1% BSA-PBS overnight. Secondary antibody (anti-rabbit) conjugated to HRP was used to detect the presence of primary antibody. The sections were briefly rinsed three times in PBS solution after immuno-probing with secondary antibody, and DAB HRP substrate was added per manufacture's instructions (Sigma St Louis Mo. USA). The reaction was allowed to proceed until sharp contrast between positive and negative controls was observed. For negative controls primary antibody were eliminated. Leukemic mice spleen served as positive controls.
# Mice were sacrificed after a decrease in LGI was observed and spleen harvested. […] Control mice also developed random subcutaneous tumors showing Crk expression, indicative of the presence of K562 cells.
# K562 cells [3] = assay: Anti-CML activity in nude mice implanted with K562 cells (leukemia growth index); type: in vivo; settings: ip injections
# Description: Nude mice (nu/nu) were implanted with K562 cells (1×10^6) via tail vein.
# Blood was drawn via the tail vein. Quantitative analysis of LGI was graphically represented.
# [4] = system: K562 luciferase expressing cells; assay: Leukemic survival study in nude mice implanted with K562 luciferase expressing cells; type: in vivo
# Description: K562 luciferase expressing cells were implanted intraperitoneally into nude mice; the mice were scanned using the xenogeny IVIS image station after ip injections of luciferin does determine implantations. Drug treatment was started as in previous studies day 15 after implantation. The animals were given treatment till day 42, after which drug treatment was stopped and survival of the animals determined as per the animal care regulations. […] Drug treatment was withdrawn on day 42 post implantation and survival of animals determined.
# [5] = Stability of Form-III crystal form under accelerated stress conditions in bulk and formulated capsule; type: physicochemical
# [6] = Heat stability of Form-III crystal form (XRPD after heating); type: physicochemical; settings: for Polymorph form detected after heating: 6 hours, XRPD
# Description: Pure Form-III crystal form (1 gm) prepared by the present process was placed in a boiling tube and heated gradually in oil bath. Then the substance was examined by XRPD.
# [7] = system: 4910 human glioma xenograft cells; assay: Glioma radiation study, nude mice intracranially implanted with 4910 cells; type: in vivo; settings: of 10 animals; without radiation; day 40 post implantation
# Experimental: Nude mice were intracranially implanted with 4910 human glioma xenograft cells (1×10^6 cells). Ten days after implantation mice were treated with AN019, AN024 or temozolomide with or without radiation (5 Gy/week). The experiment was terminated at day 40 post implantation.
# U87 glioma cells = assay: Matrigel invasion assay (modified Boyden chamber), U87; type: cell-based
# Experimental: (§1) The in vitro invasiveness of 4910, 5310 and U87 glioma cells and MDAMB231 and ZR71 breast cancer cells in the presence of specified concentrations of compounds were assessed using a modified Boyden chamber assay. Cells were treated with these compounds for 48 h. 1×10^6 cells were suspended in 600 μl of serum-free medium supplemented with 0.2% BSA and placed in the upper compartment of the transwell chambers (Corning Costar Fischer Scientific Cat #07-200-158, Pittsburgh Pa.) coated with Matrigel (0.7 mg/ml). The lower compartment of the chamber was filled with 200 μl of serum medium and the cells were allowed to migrate for 24 h. After incubation, the cells were fixed and stained with Hema-3 and quantified as previously described (Mohanam et al. 1993). The migrated cells were imaged microscopically to determine the reduction in invasiveness induced by the compounds of this invention.
# ZR71 breast cancer cells = assay: Matrigel invasion assay (modified Boyden chamber), ZR-71; type: cell-based
# Experimental: as §1
# 4910 glioma cells = assay: Matrigel invasion assay (modified Boyden chamber), 4910; type: cell-based, human
# Experimental: as §1
# 5310 glioma cells = assay: Matrigel invasion assay (modified Boyden chamber), 5310; type: cell-based
# Experimental: as §1
# [8] = system: MDAMB231 breast cancer cells; assay: Matrigel invasion assay (modified Boyden chamber), MDA-MB-231; type: cell-based
# Experimental: as §1
# [9] = drug treatment withdrawn on day 42
structure (smiles),measurement,setting,value
"Cc1ccc(NC(=O)c2cc(C(F)(F)F)cc(C(F)(F)F)c2)cc1Nc1nccc(-c2cccnc2)n1 [Form-I, (3,5-bis trifluoromethyl)-N-[4-methyl-3-(4-pyridin-3yl-pyrimidin-2ylamino)-phenyl]-benzamide]",Stability of crystal form,[1],metastable
"Cc1ccc(NC(=O)c2ccc(CN3CCN(C)CC3)cc2)cc1Nc1nccc(-c2cccnc2)n1 [Imatinib, Imatinib mesylate, reference compound]",Crk expression in spleen (immunohistochemistry),K562 cells [2],few colonies with low to undetectable expression levels of Crk; also recorded: localized expression regions of Crk expression
same,Spleenic enlargement (gross observation),K562 cells [2],slight spleenic enlargement
same,"Physiological, phenotypic or behavioral abnormality",K562 cells [3],"no abnormal physiological, phenotypic or behavioral abnormality"
same,"Blast cell count from blood smears, effectiveness after withdrawal of drug treatment",[4]; [9],ineffective
same,Leukemic symptoms after treatment withdrawal,[4]; [9],reoccurrences of leukemic symptoms
same,Mortality,"[4]; treatment day 15 to day 42, then withdrawn, 10 animals","mortality on day 55, 56, 57 and 58"
"Cc1ccc(NC(=O)c2cc(C(F)(F)F)cc(C(F)(F)F)c2)cc1Nc1nccc(-c2cccnc2)n1 [Form-III, (3,5-bis trifluoromethyl)-N-[4-methyl-3-(4-pyridin-3yl-pyrimidin-2ylamino)-phenyl]-benzamide]",Stability of crystal form,[1],thermodynamically stable
same,"Polymorph content of bulk compound of formula I, polymorph form detected",[5]; 0 Month at 40 ± 2° C./75 ± 5% RH,Form-III
same,"Polymorph content of bulk compound of formula I, polymorph form detected",[5]; 1 Month at 40 ± 2° C./75 ± 5% RH,Form-III
same,"Polymorph content of bulk compound of formula I, polymorph form detected",[5]; 2 Months at 40 ± 2° C./75 ± 5% RH,Form-III
same,"Polymorph content of bulk compound of formula I, polymorph form detected",[5]; 3 Months at 40 ± 2° C./75 ± 5% RH,Form-III
same,"Polymorph content of bulk compound of formula I, polymorph form detected",[5]; 6 Months at 40 ± 2° C./75 ± 5% RH,Form-III
same,Polymorph form detected after heating,[6]; 110° C.,Form-III
same,Polymorph form detected after heating,[6]; 120° C.,Form-III
same,Polymorph form detected after heating,[6]; 130° C.,Form-III
same,Heat stability,[6]; heated at 130° C. for 6 hours,non-metastable and stable; also recorded: stable to heat
Cn1nnc2c(C(N)=O)ncn2c1=O [Temozolomide],Animals cured / complete absence of intracranial tumours,[7],3 animals
same,±Change in invasion after radiation,U87 glioma cells; U87,+3%
same,+Radiation % Invasion,"U87 glioma cells; U87, with radiation, 48 h treatment",93%
same,−Radiation % Invasion,"U87 glioma cells; U87, without radiation, 48 h treatment",90%
same,±Change in invasion after radiation,ZR71 breast cancer cells; ZR-71,−5%
same,+Radiation % Invasion,"ZR71 breast cancer cells; ZR-71, with radiation, 48 h treatment",65%
same,−Radiation % Invasion,"ZR71 breast cancer cells; ZR-71, without radiation, 48 h treatment",70%
same,±Change in invasion after radiation,4910 glioma cells; 4910,−22%
same,+Radiation % Invasion,"4910 glioma cells; 4910, with radiation, 48 h treatment",73%
same,−Radiation % Invasion,"4910 glioma cells; 4910, without radiation, 48 h treatment",95%
same,±Change in invasion after radiation,5310 glioma cells; 5310,+13%
same,+Radiation % Invasion,"5310 glioma cells; 5310, with radiation, 48 h treatment",63%
same,−Radiation % Invasion,"5310 glioma cells; 5310, without radiation, 48 h treatment",50%
same,±Change in invasion after radiation,[8]; MDA-MB-231,−13%
same,+Radiation % Invasion,"[8]; MDA-MB-231, with radiation, 48 h treatment",49%
same,−Radiation % Invasion,"[8]; MDA-MB-231, without radiation, 48 h treatment",62%
"Cc1ccc(NC(=O)c2cc(C(F)(F)F)cc(C(F)(F)F)c2)cc1Nc1nccc(-c2cccnc2)n1 [Form-II, (3,5-bis trifluoromethyl)-N-[4-methyl-3-(4-pyridin-3yl-pyrimidin-2ylamino)-phenyl]-benzamide]",Stability of crystal form,[1],metastable
